In ChEMBL document CHEMBL1157081, “HPLC-based activity profiling for GABA(A) receptor modulators: a new dihydroisocoumarin from Haloxylon scoparium” (J Nat Prod, 2010):
The source made the active and inactive calls. The calls are words filed in the database; no cut-off is given here.

What was measured:
[1] = Allosteric modulation at GABA A receptor alpha-1-beta-2-gamma-2S expressed in Xenopus oocytes assessed as enhancement of GABA-induced chloride current; type: cell-based; conditions: Oocyte
Oocyte [2] = assay: Allosteric modulation at GABA A receptor alpha-1-beta-2-gamma-2S expressed in Xenopus oocytes assessed as enhancement of GABA-induced chloride current at 500 uM; type: cell-based
Oocyte [3] = assay: Agonist activity at GABA A receptor alpha-1-beta-2-gamma-2S expressed in Xenopus oocytes assessed as enhancement of chloride current at 500 uM; type: functional, cell-based
Oocyte [4] = assay: Allosteric modulation at GABA A receptor alpha-1-beta-2-gamma-2S expressed in Xenopus oocytes assessed as enhancement of GABA-induced chloride current at >=3 uM; type: cell-based

Work on CC(C)=CCC[C@](C)(O[C@@H]1O[C@H](CO[C@@H]2O[C@@H](CO)[C@H](O)[C@H]2O)[C@@H](O)[C@H](O)[C@H]1O)[C@H]1CC[C@]2(C)[C@@H]1[C@H](O)C[C@@H]1[C@@]3(C)CC[C@H](O[C@@H]4O[C@H](CO)[C@@H](O)[C@H](O)[C@H]4O[C@@H]4O[C@H](CO)[C@@H](O)[C@H](O)[C@H]4O)C(C)(C)[C@@H]3CC[C@]12C [GINSENOSIDE RC] yielded an EC50 [1] of 53.2 µM.
In the case of COc1c2c(cc3c1C(=O)O[C@H](c1ccccc1)C3)OCO2, the EC50 [1] is reported as 140 µM, the Activity (Oocyte [2]) is reported as 145% and the Activity (Oocyte [3]) is reported as “inactive”. For the same compound, the Activity (Oocyte [4]) was “Active”.
Compound CC1(C)C2CCC1(C)C(O)C2 (racemic) [BORNEOL] has an EC50 [1] of 237 µM.
